Columns and labels:
[1] = test system: SW480 colon carcinoma cells; assay: Cell viability assay (CellTiter-Glo); format: cell-based, human; conditions: four days incubation
[2] = test system: Tau phosphorylation at Ser396 (pSer396); assay: Tau phosphorylation assay (pSer396) in SH-SY5Y cells; format: cell-based, human; conditions: overnight (16-18 h) exposure, pSer396 Tau ELISA
Method: Two days before treatment, cells were seeded onto 96 well plates at 5×10^4 cells/well.
Wells were visually checked for cell death or change in morphology and supernatants were tested for cytotoxicity by measurement of lactate dehydrogenase release (LDH, CytoToxOne kit, Promega) if necessary.
Cells were lysed with RIPA buffer complemented with phosphatase and protease inhibitors then lysates were spun down at 12,000 g for 10 min to remove any cellular debris. Lysates are then either directly tested for pSer396 by ELISA (Life Technology, Kit KHB7031) or loaded on NuPage Bis-Tris gels for western blot analysis. Colorimetric detection of ELISA signal is performed by Cytation3 plate reader (Biotek) and the chemiluminescence signal for HRP-linked antibodies used in western blotting is detected using a Carestream Image Station. The same pSer396 antibody is used for detection of pTau in both assays.

[3] = test system: LL29 cells (αSMA positive cells); assay: Fibrosis assay: TGF-β1 treated primary human fibroblasts from IPF patients, αSMA staining; format: cell-based; conditions: LL29 cells treated with TGF-β1, 4 days
IL-6 = IL-6 inhibition in LPS-stimulated human peripheral blood mononuclear cells (HTRF); format: cell-based; conditions: LPS-stimulated huPBMCs, IL-6 HTRF
Method: After 22 hour incubation, a mixture of anti-IL6 XL665 and anti-IL-6 Cryptate diluted in reconstitution buffer (Catalog #62IL6PEC, Cisbio Inc., Bedford, Mass.) was added to each well. […] All samples were processed in duplicate. […] EC50 was determined using software generated by Dotmatics Limited (Windhill Bishops Stortford Herts, UK) using the Levenberg-Marquardt 4 parameter fitting procedure with finite different gradients.

[4] = test system: Wnt activity, Sp5-Luc reporter in SW480 colon carcinoma cells; assay: Screening assay for Wnt activity (Sp5-Luc reporter gene assay); format: cell-based, human
Method: The screening assay for Wnt activity is described as follows.
Following incubation, 15 μl of BriteLite Plus luminescence reagent (Perkin Elmer) was added to each well of the 384-well assay plates. The plates were placed on an orbital shaker for 2 min and then luminescence was quantified using the Envision (Perkin Elmer) plate reader.

EC50 [1]: > 10 µM
EC50 [2]: 0.762 µM
percent inhibition at 10 μM (given where EC50 >10 μM) (IL-6; 10 μM): 3.9%
EC50 (IL-6): > 10 µM
EC50 ([4]; incubated 36 to 48 hours): > 10 µM
Compound: Cn1cc(-c2ccc3cnc(NC(=O)C(C)(C)F)cc3c2)nn1 [Compound 312, 2-Fluoro-2-methyl-N-(6-(1-methyl-1H-1,2,3-triazol-4-yl)isoquinolin-3-yl) propanamide]
percent inhibition at 10 μM (given where EC50 >10 μM) ([3]; 10 μM): 36.5%
EC50 ([3]; αSMA staining): > 10 µM
percent inhibition at 10 μM ([4]; given for EC50 of >10 μM): 23.8%
